Results reported in ChEMBL document CHEMBL5653615 (J Biol Chem, 2013).

Experiments:
[1] = target: T1, Cytoplasmic tyrosine-protein kinase BMX (Homo sapiens) (UniProt P51813); test: Inhibition of human BMX at 1.82 nM by HotSpot assay relative to control
T1 sequence (whole entry): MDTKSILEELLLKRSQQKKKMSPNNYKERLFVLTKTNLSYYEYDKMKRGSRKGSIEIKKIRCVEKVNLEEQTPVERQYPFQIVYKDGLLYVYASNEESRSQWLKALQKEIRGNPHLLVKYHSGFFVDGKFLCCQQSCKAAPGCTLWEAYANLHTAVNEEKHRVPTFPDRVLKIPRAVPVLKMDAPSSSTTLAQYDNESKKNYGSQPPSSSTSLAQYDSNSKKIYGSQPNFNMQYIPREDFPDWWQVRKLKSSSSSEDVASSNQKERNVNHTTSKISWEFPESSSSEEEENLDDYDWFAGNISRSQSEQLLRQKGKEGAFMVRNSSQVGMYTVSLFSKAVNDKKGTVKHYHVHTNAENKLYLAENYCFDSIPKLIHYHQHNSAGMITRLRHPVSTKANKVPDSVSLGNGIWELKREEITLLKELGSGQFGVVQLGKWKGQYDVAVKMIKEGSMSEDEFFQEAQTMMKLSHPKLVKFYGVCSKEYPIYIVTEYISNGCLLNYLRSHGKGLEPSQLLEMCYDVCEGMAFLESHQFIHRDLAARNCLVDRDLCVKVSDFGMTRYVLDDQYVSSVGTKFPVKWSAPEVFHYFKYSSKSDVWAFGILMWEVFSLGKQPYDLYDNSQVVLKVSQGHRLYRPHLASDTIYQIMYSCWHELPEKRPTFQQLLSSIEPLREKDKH

[2] = target: T2, Serine/threonine-protein kinase BRSK2 (Homo sapiens) (UniProt Q8IWQ3); test: Inhibition of human BRSK2 at 1.82 nM by HotSpot assay relative to control
T2 sequence (whole entry): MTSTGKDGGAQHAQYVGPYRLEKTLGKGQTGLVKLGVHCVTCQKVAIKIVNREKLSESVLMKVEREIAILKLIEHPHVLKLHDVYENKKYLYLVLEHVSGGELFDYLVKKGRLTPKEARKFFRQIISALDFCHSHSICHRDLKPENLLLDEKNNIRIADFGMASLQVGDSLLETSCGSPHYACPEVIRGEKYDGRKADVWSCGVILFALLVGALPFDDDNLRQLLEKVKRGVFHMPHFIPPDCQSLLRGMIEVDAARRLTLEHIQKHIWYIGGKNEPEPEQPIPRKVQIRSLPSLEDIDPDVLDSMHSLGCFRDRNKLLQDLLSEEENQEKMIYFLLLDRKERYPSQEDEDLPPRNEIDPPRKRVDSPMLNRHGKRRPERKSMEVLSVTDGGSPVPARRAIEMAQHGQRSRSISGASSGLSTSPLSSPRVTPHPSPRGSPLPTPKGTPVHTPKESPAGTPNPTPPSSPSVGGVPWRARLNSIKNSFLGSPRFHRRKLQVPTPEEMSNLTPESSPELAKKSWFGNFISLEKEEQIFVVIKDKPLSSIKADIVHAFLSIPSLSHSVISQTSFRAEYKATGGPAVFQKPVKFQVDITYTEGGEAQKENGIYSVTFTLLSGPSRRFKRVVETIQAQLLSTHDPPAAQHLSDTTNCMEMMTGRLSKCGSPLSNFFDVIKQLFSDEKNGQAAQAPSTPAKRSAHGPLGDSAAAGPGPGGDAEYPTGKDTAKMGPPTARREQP

[3] = target: Protein kinase C beta type (Homo sapiens) (UniProt P05771); test: Inhibition of human PKCb2 at 1.82 nM by HotSpot assay relative to control
[4] = target: T3, Testis-specific serine/threonine-protein kinase 1 (Homo sapiens) (UniProt Q9BXA7); test: Inhibition of human TSSK1 at 1.82 nM by HotSpot assay relative to control
T3 sequence (whole entry): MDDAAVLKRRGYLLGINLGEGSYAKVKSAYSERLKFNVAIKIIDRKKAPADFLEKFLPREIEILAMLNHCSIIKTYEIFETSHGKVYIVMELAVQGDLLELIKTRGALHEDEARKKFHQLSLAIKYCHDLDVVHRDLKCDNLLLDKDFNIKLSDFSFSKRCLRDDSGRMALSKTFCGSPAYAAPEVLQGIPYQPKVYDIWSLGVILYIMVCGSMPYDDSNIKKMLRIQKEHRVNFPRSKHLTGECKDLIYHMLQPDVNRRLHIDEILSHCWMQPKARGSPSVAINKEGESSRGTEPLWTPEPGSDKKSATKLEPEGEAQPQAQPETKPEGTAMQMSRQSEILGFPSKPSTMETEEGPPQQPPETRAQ

[5] = target: T4, Serine/threonine-protein kinase Nek9 (Homo sapiens) (UniProt Q8TD19); test: Inhibition of human NEK9 at 18.6 nM by HotSpot assay relative to control
T4 sequence (whole entry): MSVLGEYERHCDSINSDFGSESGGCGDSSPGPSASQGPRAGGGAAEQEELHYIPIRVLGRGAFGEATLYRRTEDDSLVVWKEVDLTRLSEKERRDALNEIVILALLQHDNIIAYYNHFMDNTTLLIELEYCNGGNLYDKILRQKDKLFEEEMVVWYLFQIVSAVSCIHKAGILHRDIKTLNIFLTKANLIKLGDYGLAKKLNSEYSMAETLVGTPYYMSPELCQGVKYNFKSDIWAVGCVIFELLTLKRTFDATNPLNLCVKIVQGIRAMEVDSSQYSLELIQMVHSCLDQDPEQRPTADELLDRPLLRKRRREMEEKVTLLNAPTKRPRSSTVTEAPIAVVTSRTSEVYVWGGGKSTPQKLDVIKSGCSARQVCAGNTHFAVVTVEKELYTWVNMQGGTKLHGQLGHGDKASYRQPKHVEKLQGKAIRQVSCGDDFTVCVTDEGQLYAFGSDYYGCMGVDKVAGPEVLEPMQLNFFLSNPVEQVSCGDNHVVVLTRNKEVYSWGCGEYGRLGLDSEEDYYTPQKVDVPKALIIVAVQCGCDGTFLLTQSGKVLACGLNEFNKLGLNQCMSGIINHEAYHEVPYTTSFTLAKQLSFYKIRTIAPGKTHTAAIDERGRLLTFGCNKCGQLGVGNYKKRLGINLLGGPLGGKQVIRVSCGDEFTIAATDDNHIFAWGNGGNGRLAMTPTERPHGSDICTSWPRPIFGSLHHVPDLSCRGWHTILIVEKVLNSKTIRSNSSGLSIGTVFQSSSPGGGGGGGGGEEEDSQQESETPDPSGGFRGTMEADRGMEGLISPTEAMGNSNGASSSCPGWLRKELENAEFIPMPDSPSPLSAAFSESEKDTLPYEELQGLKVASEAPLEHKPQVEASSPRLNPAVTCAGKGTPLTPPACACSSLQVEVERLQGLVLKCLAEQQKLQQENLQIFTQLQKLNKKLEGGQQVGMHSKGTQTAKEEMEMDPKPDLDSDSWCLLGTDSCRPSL

[6] = target: Serine/threonine-protein kinase 16 (Homo sapiens) (UniProt O75716); test: Inhibition of human STK16 at 18.6 nM by HotSpot assay relative to control
Chain of Serine/threonine-protein kinase 16 (Homo sapiens) (O75716 whole entry): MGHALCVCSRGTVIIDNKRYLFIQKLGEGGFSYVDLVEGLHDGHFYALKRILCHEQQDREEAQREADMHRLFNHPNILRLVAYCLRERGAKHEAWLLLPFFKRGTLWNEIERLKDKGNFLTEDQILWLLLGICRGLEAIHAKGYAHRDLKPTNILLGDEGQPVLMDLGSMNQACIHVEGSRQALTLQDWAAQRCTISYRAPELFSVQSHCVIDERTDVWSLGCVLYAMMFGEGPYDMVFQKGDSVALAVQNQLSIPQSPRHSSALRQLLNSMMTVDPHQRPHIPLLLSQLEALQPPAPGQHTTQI

Chain of Protein kinase C beta type (Homo sapiens) (P05771 2-671 limits assumed): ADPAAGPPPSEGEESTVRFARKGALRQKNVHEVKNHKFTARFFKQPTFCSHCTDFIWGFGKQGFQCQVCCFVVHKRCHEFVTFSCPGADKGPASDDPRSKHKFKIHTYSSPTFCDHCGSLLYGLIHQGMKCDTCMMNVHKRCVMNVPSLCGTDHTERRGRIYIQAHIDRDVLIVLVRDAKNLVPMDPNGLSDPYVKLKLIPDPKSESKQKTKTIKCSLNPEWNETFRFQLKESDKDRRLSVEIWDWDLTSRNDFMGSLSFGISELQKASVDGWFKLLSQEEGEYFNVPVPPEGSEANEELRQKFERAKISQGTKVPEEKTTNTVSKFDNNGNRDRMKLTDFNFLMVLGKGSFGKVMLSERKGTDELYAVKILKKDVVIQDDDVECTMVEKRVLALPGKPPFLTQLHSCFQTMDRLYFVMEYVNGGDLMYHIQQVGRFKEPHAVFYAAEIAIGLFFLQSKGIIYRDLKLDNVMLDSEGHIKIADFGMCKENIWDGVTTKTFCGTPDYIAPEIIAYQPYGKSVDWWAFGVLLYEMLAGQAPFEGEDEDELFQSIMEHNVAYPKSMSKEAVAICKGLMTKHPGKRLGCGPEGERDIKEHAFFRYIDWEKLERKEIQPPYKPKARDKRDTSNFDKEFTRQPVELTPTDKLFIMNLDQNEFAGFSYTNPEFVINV

Row | Structure (SMILES) | inhibition [1] [%] | inhibition [2] [%] | inhibition [3] [%] | inhibition [4] [%] | inhibition [5] [%] | inhibition [6] [%]
1 | C[C@@]1(C(=O)Nc2ccc(F)nc2)CCCN1c1nc(Nc2cc(C3CC3)n[nH]2)c2cccn2n1 | -1.37 | -3.06 | -3.58 | 4.11 |  | 
2 | C[C@]1(O)C[C@@H](c2nc(-c3ccc4ccc(-c5ccccc5)nc4c3)c3c(N)nccn32)C1 |  |  |  |  | -6.26 | -0.38
